Source: patent US20230263886A1, “VACCINES, VACCINE PRIMING, AND ANTIGEN DOSE SPARING” (priority 2020, published 2023)

Assays:
[1] = type: in vivo, C57BL/6J mice
Protocol: Body weights were measured serially.

[2] = system: H3N2; conditions: including a recombinant influenza antigen
Protocol: Sera were analyzed at days 0, 14, and 28 by ELISA for H3N2-specific IgG titers and HI (hemagglutination inhibition) titers, H1N1-specific IgG titers and HI titers, and B/Phuket-specific IgG titers and HI titers. All mice were previously naïve to human influenza.

[3] = system: H3N2; assay: H3N2-specific IgG by ELISA, dose-sparing study in mice (Example 4); conditions: FIG. 26
Protocol: Sera were analyzed at days 0, 21 and 42 by ELISA for H3N2-specific IgG.

Compound	body weight after immunization ([1]; mice receiving TQL-1055)	dose sparing for vaccine antigens [2]	antigen dose-sparing effects, murine antibody response to FLUBLOK [3]	maximum weight loss ([1]; mice receiving 20 mcg of QS-21) [%]
CC1O[C@@H](OC2C(O)[C@@H](NC(=O)CCCCCCCCCCC(=O)O)C(CO)O[C@H]2OC(=O)[C@]23CCC(C)(C)CC2C2=CCC4C5(C)CC[C@H](O)C(C)(C=O)C5CCC4(C)C2(C)CC3O)C(O)C(O)[C@H]1O[C@@H]1OC[C@@H](O)C(O)C1O (stereo partly shown) [TQL-1055]	gained weight steadily	at least 32 ×	superior antigen dose-sparing effects	
QS-21 [reference compound]				> 10
